These are literature values, as cited in publication doi:10.1101/435081v1 (bioRxiv, 2018).

This data set concerns Lb. sakei NCDO2714. The settings on record: single peptide alone.

With acidocin LF221A [Acd221A], the “Growth inhibition when alone” value was “inhibited the growth”.

As to acidocin LF221B [Acd221B], the “Growth inhibition when alone” value is “inhibited the growth”.
